According to ChEMBL document CHEMBL1149955, “The discovery and synthesis of 2-biphenylcarbapenems active against methicillin resistant staphylococci” (1995):
In brackets after ≈: the same amount, converted by molar mass.

How the values were obtained:
Format in all cases: functional
Staphylococcus aureus [1] = assay: Compound was evaluated for anti-methicillin-resistant activity against methicillin-resistant Staphylococcus aureus CL 3043
Staphylococcus aureus [2] = assay: Compound was evaluated for anti-methicillin-resistant activity against methicillin-resistant Staphylococcus aureus CL 3033
Staphylococcus aureus [3] = assay: Compound was evaluated for anti-methicillin-resistant activity against methicillin-resistant Staphylococcus aureus CL 792
Staphylococcus aureus [4] = assay: Compound was evaluated for anti-methicillin-resistant activity against methicillin-resistant Staphylococcus aureus CL 714
Pseudomonas aeruginosa [5] = assay: Antibacterial activity against Pseudomonas aeruginosa (5 )
Staphylococcus aureus [6] = assay: Compound was evaluated for anti-methicillin-resistant activity against methicillin-resistant Staphylococcus aureus CL 1991
Staphylococcus sp. [7] = assay: Compound was evaluated for anti-methicillin-resistant activity against methicillin-resistant coagulase-negative Staphylococci
Proteus [8] = assay: Antibacterial activity against Proteus species. (5)
Staphylococcus sp. [9] = assay: Compound was evaluated for anti-methicillin-resistant activity against methicillin-resistant coagulase-negative Staphylococci CL 202
Staphylococcus aureus [10] = assay: Compound was evaluated for anti-methicillin-resistant activity against methicillin-resistant Staphylococcus aureus CL 1395
Staphylococcus aureus [11] = assay: Compound was evaluated for anti-methicillin-resistant activity against methicillin-resistant Staphylococcus aureus CL 1989
Staphylococcus sp. [12] = assay: Compound was evaluated for anti-methicillin-resistant activity against methicillin-resistant coagulase-negative Staphylococci CL 171
[13] = biological target: T1, Dipeptidase 1 (Sus scrofa) (UniProt P22412); assay: DHP-I susceptibility relative to imipenem
T1 sequence (whole entry): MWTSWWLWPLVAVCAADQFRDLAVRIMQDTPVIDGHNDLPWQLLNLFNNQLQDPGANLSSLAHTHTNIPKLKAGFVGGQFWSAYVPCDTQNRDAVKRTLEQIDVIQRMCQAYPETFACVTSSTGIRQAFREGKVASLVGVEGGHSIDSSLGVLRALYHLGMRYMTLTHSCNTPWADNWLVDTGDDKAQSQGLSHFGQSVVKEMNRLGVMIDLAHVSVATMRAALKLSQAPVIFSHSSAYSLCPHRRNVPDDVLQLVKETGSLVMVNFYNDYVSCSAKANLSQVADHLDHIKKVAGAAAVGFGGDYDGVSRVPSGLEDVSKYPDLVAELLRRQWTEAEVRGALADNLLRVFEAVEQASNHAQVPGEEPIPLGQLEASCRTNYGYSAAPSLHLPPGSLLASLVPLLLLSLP

Enterococcus sp. [14] = assay: Antibacterial activity against Enterococcus species. (3)
Serratia [15] = assay: Antibacterial activity against Serratia species. (2)
Staphylococcus aureus [16] = assay: Compound was evaluated for anti-methicillin-resistant activity against methicillin-resistant Staphylococcus aureus CL 3031
Staphylococcus aureus [17] = assay: Compound was evaluated for anti-methicillin-resistant activity against methicillin-resistant Staphylococcus aureus
Staphylococcus sp. [18] = assay: Compound was evaluated for anti-methicillin-resistant activity against methicillin-resistant coagulase-negative Staphylococci CL 227
Staphylococcus aureus [19] = assay: Compound was evaluated for anti-methicillin-resistant activity against methicillin-resistant Staphylococcus aureus CL 3025
Escherichia coli [20] = assay: Antibacterial activity against Escherichia coli (5)
Staphylococcus aureus [21] = assay: Compound was evaluated for anti-methicillin-resistant activity against methicillin-resistant Staphylococcus aureus CL 1985
Staphylococcus sp. [22] = assay: Compound was evaluated for anti-methicillin-resistant activity against methicillin-resistant coagulase-negative Staphylococci CL 546
Klebsiella sp. [23] = assay: Antibacterial activity against Klebsiella species. (5)
Staphylococcus aureus [24] = assay: Compound was evaluated for anti-methicillin-resistant activity against methicillin-resistant Staphylococcus aureus CL 1983
Staphylococcus aureus [25] = assay: Antibacterial activity against Methicillin-resistant Staphylococcus aureus (1)
Staphylococcus aureus [26] = assay: Antibacterial activity against Methicillin-sensitive Staphylococcus aureus (4)
Staphylococcus aureus [27] = assay: Compound was evaluated for anti-methicillin-resistant activity against methicillin-resistant Staphylococcus aureus CL 1990
Enterobacter sp. [28] = assay: Antibacterial activity against Enterobacter species. (6)
Enterobacter sp. [29] = assay: Relative potency was calculated against Enterobacter species. (6) by dividing the species index of Imipenem by the species index of the test compound
Escherichia coli [30] = assay: Relative potency was calculated against Escherichia coli (5) by dividing the species index of Imipenem by the species index of the test compound
Enterococcus sp. [31] = assay: Relative potency was calculated against Enterococcus species. (3) by dividing the species index of Imipenem by the species index of the test compound
Staphylococcus aureus [32] = assay: Relative potency was calculated against Methicillin-sensitive Staphylococcus aureus (4) by dividing the species index of Imipenem by the species index of the test compound
Pseudomonas aeruginosa [33] = assay: Relative potency was calculated against Pseudomonas aeruginosa (5 ) by dividing the species index of Imipenem by the species index of the test compound
Klebsiella sp. [34] = assay: Relative potency was calculated against Klebsiella species. (5) by dividing the species index of Imipenem by the species index of the test compound
Serratia [35] = assay: Relative potency was calculated against Serratia species. (2) by dividing the species index of Imipenem by the species index of the test compound
Staphylococcus aureus [36] = assay: Relative potency was calculated against Methicillin-resistant Staphylococcus aureus (1) by dividing the species index of Imipenem by the species index of the test compound
Proteus [37] = assay: Relative potency was calculated against Proteus species. (5) by dividing the species index of Imipenem by the species index of the test compound

| Compound | MIC (Staphylococcus aureus [1]) [µg/mL] | MIC (Staphylococcus aureus [2]) [µg/mL] | MIC (Staphylococcus aureus [3]) [µg/mL] | MIC (Staphylococcus aureus [4]) [µg/mL] | MIC (Staphylococcus aureus [6]) [µg/mL] | MIC50 (Staphylococcus sp. [7]) [µg/mL] | MIC90 (Staphylococcus sp. [7]) [µg/mL] | MIC (Staphylococcus sp. [9]) [µg/mL] | MIC (Staphylococcus aureus [10]) [µg/mL] | MIC (Staphylococcus aureus [11]) [µg/mL] | MIC (Staphylococcus sp. [12]) [µg/mL] | Susceptibility [13] | MIC (Staphylococcus aureus [16]) [µg/mL] | MIC50 (Staphylococcus aureus [17]) [µg/mL] | MIC90 (Staphylococcus aureus [17]) [µg/mL] | MIC (Staphylococcus sp. [18]) [µg/mL] | MIC (Staphylococcus aureus [19]) [µg/mL] | MIC (Staphylococcus aureus [21]) [µg/mL] | MIC (Staphylococcus sp. [22]) [µg/mL] | MIC (Staphylococcus aureus [24]) [µg/mL] | other results |
| --- | --- | --- | --- | --- | --- | --- | --- | --- | --- | --- | --- | --- | --- | --- | --- | --- | --- | --- | --- | --- | --- |
| C[C@@H](O)[C@H]1C(=O)N2C(C(=O)O)=C(SCCNC=N)C[C@H]12 [IMIPENEM ANHYDROUS] | 16 (≈ 53.4 µM) | 128 (≈ 428 µM) | 32 (≈ 107 µM) | 32 (≈ 107 µM) | 1 (≈ 3.34 µM) | 64 (≈ 214 µM) | > 128 | > 128 | 64 (≈ 214 µM) | 2 (≈ 6.68 µM) | > 128 | 1 | 32 (≈ 107 µM) | 4 (≈ 13.4 µM) | 64 (≈ 214 µM) | 64 (≈ 214 µM) | 2 (≈ 6.68 µM) | 1 (≈ 3.34 µM) | 64 (≈ 214 µM) | 1 (≈ 3.34 µM) | MIC (Pseudomonas aeruginosa [5]): 0.36 µg/mL (≈ 1.2 µM); MIC (Proteus [8]): 0.78 µg/mL (≈ 2.61 µM); MIC (Enterococcus sp. [14]): 1.8 µg/mL (≈ 6.01 µM); MIC (Serratia [15]): 0.29 µg/mL (≈ 0.969 µM); MIC (Escherichia coli [20]): 0.19 µg/mL (≈ 0.635 µM); MIC (Klebsiella sp. [23]): 0.29 µg/mL (≈ 0.969 µM); MIC (Staphylococcus aureus [25]): 33 µg/mL (≈ 110 µM); MIC (Staphylococcus aureus [26]): 0.01 µg/mL (≈ 0.0334 µM); MIC (Staphylococcus aureus [27]): 4 µg/mL (≈ 13.4 µM); MIC (Enterobacter sp. [28]): 0.18 µg/mL (≈ 0.601 µM) |
| C[C@@H](O)[C@H]1C(=O)N2C(C(=O)[O-])=C(c3ccc(-c4ccc(C[n+]5ccc(N(C)C)cc5)cc4)cc3)C[C@H]12 |  |  |  |  |  |  |  |  |  |  |  | 0.46 |  |  |  |  |  |  |  |  | Relative potency (Enterobacter sp. [29]): 0.12; Relative potency (Escherichia coli [30]): 0.31; Relative potency (Enterococcus sp. [31]): 2; Relative potency (Staphylococcus aureus [32]): 0.16; Relative potency (Pseudomonas aeruginosa [33]): 0.013; Relative potency (Klebsiella sp. [34]): 0.04; Relative potency (Serratia [35]): 0.26; Relative potency (Staphylococcus aureus [36]): 3.9; Relative potency (Proteus [37]): 0.44 |
| C[C@@H](O)[C@H]1C(=O)N2C(C(=O)[O-])=C(c3cccc(C[n+]4ccccc4N)c3)C[C@H]12 |  |  |  |  |  |  |  |  |  |  |  | 0.11 |  |  |  |  |  |  |  |  | Relative potency (Enterobacter sp. [29]): 3; Relative potency (Escherichia coli [30]): 1.7; Relative potency (Enterococcus sp. [31]): 12.9; Relative potency (Staphylococcus aureus [32]): 0.5; Relative potency (Pseudomonas aeruginosa [33]): 0.02; Relative potency (Klebsiella sp. [34]): 1.1; Relative potency (Serratia [35]): 4.4; Relative potency (Staphylococcus aureus [36]): 2; Relative potency (Proteus [37]): 4.2 |
| C[C@@H](O)[C@H]1C(=O)N2C(C(=O)[O-])=C(c3cccc(-c4ccc(C[n+]5ccccc5N)cc4)c3)C[C@H]12 | 1 (≈ 2.2 µM) | 2 (≈ 4.39 µM) | 1 (≈ 2.2 µM) | 2 (≈ 4.39 µM) | 1 (≈ 2.2 µM) | 2 (≈ 4.39 µM) | 4 (≈ 8.78 µM) | 2 (≈ 4.39 µM) | 2 (≈ 4.39 µM) | 0.5 (≈ 1.1 µM) | 4 (≈ 8.78 µM) | 0.04 | 2 (≈ 4.39 µM) | 1 (≈ 2.2 µM) | 2 (≈ 4.39 µM) | 2 (≈ 4.39 µM) | 1 (≈ 2.2 µM) | 1 (≈ 2.2 µM) | 2 (≈ 4.39 µM) | 0.5 (≈ 1.1 µM) | Relative potency (Enterobacter sp. [29]): 0.04; Relative potency (Escherichia coli [30]): 0.11; Relative potency (Enterococcus sp. [31]): 6.2; Relative potency (Staphylococcus aureus [32]): 0.43; Relative potency (Pseudomonas aeruginosa [33]): 0.01; Relative potency (Klebsiella sp. [34]): 0.04; Relative potency (Serratia [35]): 0.11; Relative potency (Staphylococcus aureus [36]): 154; Relative potency (Proteus [37]): 0.38; MIC (Staphylococcus aureus [27]): 1 µg/mL (≈ 2.2 µM) |
| CN[C@H](CC(C)C)C(=O)N[C@H]1C(=O)N[C@@H](CC(N)=O)C(=O)N[C@H]2C(=O)N[C@H]3C(=O)N[C@H](C(=O)N[C@H](C(=O)O)c4cc(O)cc(O)c4-c4cc3ccc4O)[C@H](O)c3ccc(c(Cl)c3)Oc3cc2cc(c3O[C@@H]2O[C@H](CO)[C@@H](O)[C@H](O)[C@H]2O[C@H]2C[C@](C)(N)[C@H](O)[C@H](C)O2)Oc2ccc(cc2Cl)[C@H]1O [VANCOMYCIN] |  |  |  |  |  | 4 (≈ 2.76 µM) | 8 (≈ 5.52 µM) | 8 (≈ 5.52 µM) |  |  | 8 (≈ 5.52 µM) |  |  | 1 (≈ 0.69 µM) | 2 (≈ 1.38 µM) | 2 (≈ 1.38 µM) |  |  | 4 (≈ 2.76 µM) |  |  |
| COc1cccc(OC)c1C(=O)N[C@@H]1C(=O)N2[C@@H]1SC(C)(C)[C@@H]2C(=O)[O-].[Na+] | 128 | > 512 | 512 | 512 | 64 | > 512 | > 512 | > 512 | 512 | 64 | > 512 |  | 256 | 128 | 512 | 512 | 64 | 64 | > 512 | 64 | MIC (Staphylococcus aureus [27]): 128 µg/mL |
